# Source: patent US20100267561A1, “HERBICIDAL PYRIDAZINONE DERIVATIVES” (priority 2007, published 2010)
# Like-named read-outs stand apart in the source and are kept apart here.
# Columns and labels:
# Type in all cases: in vivo
# [1] = tested on: barnyardgrass (Echinochloa crus-galli); assay: Test A pre-/postemergence plant response; conditions: Echinochloa crus-galli, 240 h, read-out: Plant response rating, Barnyardgrass; for pest or weed control at 31 g/ha: 31 g ai/ha; for pest or weed control at 125 g/ha: 125 g ai/ha
# How it was run: (§1)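 Seeds were planted in blended loam soil and sand, then treated preemergence by directed soil spray. At that time, emerged plants (one- to two-leaf, 2–10 cm) received postemergence applications of the same surfactant-containing formulation. Injury was assessed visually on a 0–100 scale after approximately 10 days.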
# [2] = tested on: corn (Zea mays); assay: Test A pre-/postemergence plant response; conditions: Zea mays, 240 h; for Corn plant response rating (crop injury, 0 = no effect, 100 = complete kill) at 31 g/ha: 31 g ai/ha; for Corn plant response rating (crop injury, 0 = no effect, 100 = complete kill) at 125 g/ha: 125 g ai/ha
# How it was run: as §1
# [3] = tested on: giant foxtail (Setaria faberi); assay: Test A pre-/postemergence plant response; conditions: Setaria faberi, 240 h, read-out: Plant response rating, Foxtail, Giant; for pest or weed control at 31 g/ha: 31 g ai/ha; for pest or weed control at 125 g/ha: 125 g ai/ha
# How it was run: as §1
# [4] = tested on: large crabgrass (Digitaria sanguinalis); assay: Test A pre-/postemergence plant response; conditions: Digitaria sanguinalis, 240 h, read-out: Plant response rating, Crabgrass, Large; for pest or weed control at 31 g/ha: 31 g ai/ha; for pest or weed control at 125 g/ha: 125 g ai/ha
# How it was run: as §1
# [5] = tested on: pigweed (Amaranthus retroflexus); assay: Test A pre-/postemergence plant response; conditions: Amaranthus retroflexus, 240 h, read-out: Plant response rating, Pigweed; for pest or weed control at 31 g/ha: 31 g ai/ha; for pest or weed control at 125 g/ha: 125 g ai/ha
# How it was run: as §1
# [6] = tested on: wheat (Triticum aestivum); assay: Test A pre-/postemergence plant response; conditions: Triticum aestivum, 240 h, read-out: Plant response rating, Wheat; for plant injury at 31 g/ha: 31 g ai/ha; for plant injury at 125 g/ha: 125 g ai/ha
# How it was run: as §1
# [7] = tested on: surinam grass (Brachiaria decumbens); assay: Test B pre-/postemergence plant response; conditions: for pest or weed control at 31 g/ha / pest or weed control at 62 g/ha: Urochloa decumbens, read-out: Plant response rating, Surinam Grass; for pest or weed control at 31 g/ha: 31 g ai/ha; for pest or weed control at 62 g/ha: 62 g ai/ha, 100 complete control
# Source text: Seeds of plant species selected from blackgrass (Alopecurus myosuroides), downy bromegrass (Bromus tectorum), green foxtail (Setaria viridis), Italian ryegrass (Lolium multiflorum), wheat (Triticum aestivum), wild oat (Avena fatua), catchweed bedstraw (Galium aparine), bermudagrass (Cynodon dactylon), surinam grass (Brachiaria decumbens), cocklebur (Xanthium strumarium), corn (Zea mays), large crabgrass (Digitaria sanguinalis), woolly cupgrass (Eriochloa villosa), giant foxtail (Setaria faberii), goosegrass (Eleusine indica), johnsongrass (Sorghum halepense), kochia (Kochia scoparia), lambsquarters (Chenopodium album), morningglory (Ipomoea coccinea), eastern black (E.B.) nightshade (Solanum ptycanthum), yellow nutsedge (Cyperus esculentus), pigweed (Amaranthus retroflexus), common ragweed (Ambrosia elation), Russian thistle (Salsola iberica), soybean (Glycine max), common (oilseed) sunflower (Helianthus annuus), and velvetleaf (Abutilon theophrasti) were planted and treated preemergence with test chemicals formulated in a non-phytotoxic solvent mixture which included a surfactant.
# At the same time, plants selected from these crop and weed species and also winter barley (Hordeum vulgare), canarygrass (Phalaris minor), chickweed (Stellaria media) and windgrass (Apera spica-venti) were treated with postemergence applications of some of the test chemicals formulated in the same manner. Plants ranged in height from 2 to 18 cm (1- to 4-leaf stage) for postemergence treatments.
# Plant species in the flooded paddy test consisted of rice (Oryza sativa), umbrella sedge (Cyperus difformis), ducksalad (Heteranthera limosa) and barnyardgrass (Echinochloa crus-galli) grown to the 2-leaf stage for testing. At time of treatment, test pots were flooded to 3 cm above the soil surface, treated by application of test compounds directly to the paddy water, and then maintained at that water depth for the duration of the test. Treated plants and controls were maintained in a greenhouse for 13 to 15 days, after which time all species were compared to controls and visually evaluated. Plant response ratings, summarized in Table B, are based on a scale of 0 to 100 where 0 is no effect and 100 is complete control. A dash (-) response means no test result.
# [8] = tested on: canarygrass (Phalaris minor); assay: Test B postemergence plant response; conditions: for Plant response rating, Canarygrass: Postemergence
# How it was run: (§2)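 Scoring: 0 means no effect and 100 complete control, judged by eye against controls after 13–15 days under greenhouse conditions following postemergence application at 2–18 cm plant height.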
# [9] = tested on: chickweed (Stellaria media); assay: Test B postemergence plant response; conditions: for Plant response rating, Chickweed: Postemergence
# How it was run: as §2
# [10] = tested on: windgrass (Apera spica-venti); assay: Test B postemergence plant response; conditions: for Windgrass plant response rating: postemergence, 0-100 scale; for Plant response rating, Windgrass: Postemergence
# How it was run: as §2
# [11] = tested on: winter barley (Hordeum vulgare); assay: Test B postemergence plant response; conditions: for Plant response rating, Barley: Postemergence, scale 0 to 100, 0 no effect, 100 complete control
# How it was run: as §2
# [12] = post-emergence, Postemergence, 0 to 100 scale (0 no effect, 100 complete control)
# [13] = post-emergence, Postemergence, 0 to 100 scale, 0 no effect, 100 complete control
# [14] = pre-emergence, Preemergence, 0 to 100 scale, 0 is no effect, 100 is complete control
# [15] = pre-emergence, Preemergence, 0 to 100 scale (0 no effect, 100 complete control)
# [16] = 8 g ai/ha, postemergence, 0-100 scale
# [17] = 62 g ai/ha, scale 0 to 100, 0 no effect, 100 complete control
smiles,measurement,setting,value
"Cc1cc(-c2ccc(Br)cc2)nn1-c1c(O)cn[nH]c1=O [Compound 78, 4-[3-(4-bromophenyl)-5-methyl-1H-pyrazol-1-yl]-5-hydroxy-3(2H)-pyridazinone]",pest or weed control at 31 g/ha,[1]; [12],90%
same,pest or weed control at 125 g/ha,[1]; [13],100%
same,pest or weed control at 31 g/ha,[1]; [14],0%
same,pest or weed control at 125 g/ha,[1]; [15],100%
same,"Corn plant response rating (crop injury, 0 = no effect, 100 = complete kill) at 31 g/ha",[2]; [12],60%
same,"Corn plant response rating (crop injury, 0 = no effect, 100 = complete kill) at 125 g/ha",[2]; [13],100%
same,"Corn plant response rating (crop injury, 0 = no effect, 100 = complete kill) at 31 g/ha",[2]; [14],0%
same,"Corn plant response rating (crop injury, 0 = no effect, 100 = complete kill) at 125 g/ha",[2]; [15],90%
same,pest or weed control at 31 g/ha,[3]; [12],80%
same,pest or weed control at 125 g/ha,[3]; [13],100%
same,pest or weed control at 31 g/ha,[3]; [14],20%
same,pest or weed control at 125 g/ha,[3]; [15],100%
same,pest or weed control at 31 g/ha,[4]; [12],80%
same,pest or weed control at 125 g/ha,[4]; [13],100%
same,pest or weed control at 31 g/ha,[4]; [14],10%
same,pest or weed control at 125 g/ha,[4]; [15],100%
same,pest or weed control at 31 g/ha,[5]; [12],0%
same,pest or weed control at 125 g/ha,[5]; [13],0%
same,pest or weed control at 31 g/ha,[5]; [14],0%
same,pest or weed control at 125 g/ha,[5]; [15],0%
same,plant injury at 31 g/ha,[6]; [12],70%
same,plant injury at 125 g/ha,[6]; [13],90%
same,plant injury at 31 g/ha,[6]; [14],0%
same,plant injury at 125 g/ha,[6]; [15],90%
same,Surinam Grass plant response rating,[7]; [16],98
same,Surinam Grass plant response rating,"[7]; 16 g ai/ha, postemergence, 0-100 scale",100
same,Surinam Grass plant response rating,"[7]; Preemergence, 8 g ai/ha, scale 0 to 100 (0 no effect, 100 complete control)",95
same,Surinam Grass plant response rating,"[7]; Preemergence, 16 g ai/ha, scale 0 to 100",95
same,pest or weed control at 31 g/ha,"[7]; post-emergence, Postemergence, scale 0 to 100",100%
same,pest or weed control at 62 g/ha,"[7]; post-emergence, Postemergence, scale 0 to 100, 0 no effect",100%
same,pest or weed control at 31 g/ha,"[7]; pre-emergence, Preemergence, scale 0 to 100 (0 no effect, 100 complete control)",100%
same,pest or weed control at 62 g/ha,"[7]; pre-emergence, Preemergence, 0 to 100 scale, 0 no effect",100%
same,Canarygrass plant response rating,[8]; [16],80
same,"Plant response rating, Canarygrass","[8]; 16 g ai/ha, scale 0 to 100",90
same,"Plant response rating, Canarygrass","[8]; 31 g ai/ha, scale 0 to 100",100
same,"Plant response rating, Canarygrass",[8]; [17],100
same,Chickweed plant response rating,[9]; [16],0
same,"Plant response rating, Chickweed","[9]; 16 g ai/ha, scale 0 to 100",0
same,"Plant response rating, Chickweed","[9]; 31 g ai/ha, scale 0 to 100",0
same,"Plant response rating, Chickweed",[9]; [17],0
same,Windgrass plant response rating,[10]; 8 g ai/ha,40
same,Windgrass plant response rating,[10]; 16 g ai/ha,50
same,"Plant response rating, Windgrass","[10]; 31 g ai/ha, scale 0 to 100",60
same,"Plant response rating, Windgrass",[10]; [17],80
same,Barley plant response rating,[11]; [16],45
same,"Plant response rating, Barley",[11]; 16 g ai/ha,90
same,"Plant response rating, Barley",[11]; 31 g ai/ha,95
same,"Plant response rating, Barley",[11]; 62 g ai/ha,95
